Data taken from patent publication US20220153754A1 (JANSSEN SCIENCES IRELAND UNLIMITED COMPANY, priority 2019, published 2022).

Tested on: HBV
Assay: HBV replication inhibition assay (BDNA assay)
Format: cell-based
Details: Hepatitis B virus, HepG2.2.15, 144 h, HepG2.2.15 cells, incubated with compound for 6 days, encapsidated HBV DNA from supernatant detected by branched DNA QuantiGene assay
Procedure: HBV replication inhibition by the disclosed compounds were determined in cells infected or transfected with HBV or cells with stably integrated HBV, such as HepG2.2.15 cells (Sells et al. 1987). In this example, HepG2.2.15 cells were maintained in cell culture medium containing 10% fetal bovine serum (FBS), Geneticin, L-glutamine, penicillin and streptomycin. HepG2.2.15 cells were seeded in 96-well plates at a density of 40,000 cells/well and were treated with serially diluted compounds at a final DMSO concentration of 0.5% either alone or in combination by adding drugs in a checker box format. Cells were incubated with compounds for three days, after which medium was removed and fresh medium containing compounds was added to cells and incubated for another three days. At day 6, supernatant was removed and treated with DNase at 37° C. for 60 minutes, followed by enzyme inactivation at 75° C. for 15 minutes. Encapsidated HBV DNA was released from the virions and covalently linked HBV polymerase by incubating in lysis buffer (Affymetrix QS0010) containing 2.5 μg proteinase K at 50° C. for 40 minutes. HBV DNA was denatured by addition of 0.2 M NaOH and detected using a branched DNA (BDNA) QuantiGene assay kit according to manufacturer recommendation (Affymetrix). HBV DNA levels were also quantified using qPCR, based on amplification of encapsidated HBV DNA extraction with QuickExtraction Solution (Epicentre Biotechnologies) and amplification of HBV DNA using HBV specific PCR probes that can hybridize to HBV DNA and a fluorescently labeled probe for quantitation. In addition, cell viability of HepG2.2.15 cells incubated with test compounds alone or in combination was determined by using CellTitre-Glo reagent according to the manufacturer protocol (Promega). The mean background signal from wells containing only culture medium was subtracted from all other samples, and percent inhibition at each compound concentration was calculated by normalizing to signals from HepG2.2.15 cells treated with 0.5% DMSO using equation E1.
where DMSOave is the mean signal calculated from the wells that were treated with DMSO control (0% inhibition control) and Xi is the signal measured from the individual wells. EC50 values, effective concentrations that achieved 50% inhibitory effect, were determined by non-linear fitting using Graphpad Prism software (San Diego, Calif.) and equation E2.
where Y represents percent inhibition values and X represents the logarithm of compound concentrations.
Selected disclosed compounds were assayed in the HBV replication assay (BDNA assay), as described above, and a representative group of these active compounds is shown in Table 3.

Question: How did the EC50 turn out when O=C(Nc1ccc(F)c(C(F)(F)F)c1)N1CCc2nn3c(c2C1)-c1nocc1CC(COCC(F)F)C3 (single isomer, unassigned) [Example 6, (5S*)-5-((2,2-Difluoroethoxy)methyl)-N-(4-fluoro-3-(trifluoromethyl)phenyl)-5,6,9,10-tetrahydro-4H-isoxazolo[3,4-c]pyrido[4′,3′:3,4]pyrazolo[1,5-a]azepine-11(12H)-carboxamide] was run?
Answer: 45 nM

Question: O=C(Nc1ccc(F)c(C(F)(F)F)c1)N1CCc2nn3c(c2C1)-c1nocc1C[C@@H](COCC(F)F)C3 (single isomer, unassigned) [Example 8, (5R*)-5-((2,2-Difluoroethoxy)methyl)-N-(4-fluoro-3-(trifluoromethyl)phenyl)-5,6,9,10-tetrahydro-4H-isoxazolo[3,4-c]pyrido[4′,3′:3,4]pyrazolo[1,5-a]azepine-11(12H)-carboxamide] was tested. Which EC50 did it give?
Answer: 26 nM

Question: For C=C1Cc2conc2-c2c3c(nn2C1)CCN(C(=O)Nc1ccc(F)c(C#N)c1)C3 [Example 1, N-(3-Cyano-4-fluorophenyl)-5-methylene-5,6,9,10-tetrahydro-4H-isoxazolo[3,4-c]pyrido[4′,3′:3,4]pyrazolo[1,5-a]azepine-11(12H)-carboxamide], which EC50 is on record?
Answer: 64 nM

Question: C=C1Cc2conc2-c2c3c(nn2C1)CCN(C(=O)Nc1ccc(F)c(C(F)(F)F)c1)C3 [Example 2, N-(4-Fluoro-3-(trifluoromethyl)phenyl)-5-methylene-5,6,9,10-tetrahydro-4H-isoxazolo[3,4-c]pyrido[4′,3′:3,4]pyrazolo[1,5-a]azepine-11(12H)-carboxamide] was tested. Which EC50 did it give?
Answer: 75 nM

Question: N#Cc1cc(NC(=O)N2CCc3nn4c(c3C2)-c2nocc2CC(CO)C4)ccc1F (stereo not shown) [Example 3, N-(3-Cyano-4-fluorophenyl)-5-(hydroxymethyl)-5,6,9,10-tetrahydro-4H-isoxazolo[3,4-c]pyrido[4′,3′:3,4]pyrazolo[1,5-a]azepine-11(12H)-carboxamide] was tested. Which EC50 did it give?
Answer: 23 nM

Question: For O=C(Nc1ccc(F)c(C(F)(F)F)c1)N1CCc2nn3c(c2C1)-c1nocc1CC(CO)C3 (stereo not shown) [Example 4, N-(4-Fluoro-3-(trifluoromethyl)phenyl)-5-(hydroxymethyl)-5,6,9,10-tetrahydro-4H-isoxazolo[3,4-c]pyrido[4′,3′:3,4]pyrazolo[1,5-a]azepine-11(12H)-carboxamide], which EC50 is on record?
Answer: 57 nM

Question: For C=C1Cc2cnoc2-c2c3c(nn2C1)CCN(C(=O)Nc1ccc(F)c(C#N)c1)C3 [Example 9, N-(3-Cyano-4-fluorophenyl)-5-methylene-5,6,9,10-tetrahydro-4H-isoxazolo[5,4-c]pyrido[4′,3′:3,4]pyrazolo[1,5-a]azepine-11(12H)-carboxamide], which EC50 is on record?
Answer: 800 nM

Question: Which EC50 does the source give for C=C1Cc2cnoc2-c2c3c(nn2C1)CCN(C(=O)Nc1ccc(F)c(C(F)(F)F)c1)C3 [Example 10, N-(4-Fluoro-3-(trifluoromethyl)phenyl)-5-methylene-5,6,9,10-tetrahydro-4H-isoxazolo[5,4-c]pyrido[4′,3′:3,4]pyrazolo[1,5-a]azepine-11(12H)-carboxamide] here?
Answer: 350 nM

Question: Which EC50 does the source give for N#Cc1cc(NC(=O)N2CCc3nn4c(c3C2)-c2nocc2CC(O)C4)ccc1F (stereo not shown) [Example 11, N-(3-Cyano-4-fluorophenyl)-5-hydroxy-5,6,9,10-tetrahydro-4H-isoxazolo[3,4-c]pyrido[4′,3′:3,4]pyrazolo[1,5-a]azepine-11(12H)-carboxamide] here?
Answer: 43 nM

Question: For CC1Cc2conc2-c2c3c(nn2C1)CCN(C(=O)Nc1ccc(F)c(C(F)(F)F)c1)C3 (stereo not shown) [Example 12, N-(4-Fluoro-3-(trifluoromethyl)phenyl)-5-methyl-5,6,9,10-tetrahydro-4H-isoxazolo[3,4-c]pyrido[4′,3′:3,4]pyrazolo[1,5-a]azepine-11(12H)-carboxamide], which EC50 is on record?
Answer: 52 nM

Question: Which EC50 does the source give for CC1Cc2conc2-c2c3c(nn2C1)CCN(C(=O)Nc1ccc(F)c(C#N)c1)C3 (stereo not shown) [Example 13, N-(3-Cyano-4-fluorophenyl)-5-methyl-5,6,9,10-tetrahydro-4H-isoxazolo[3,4-c]pyrido[4′,3′:3,4]pyrazolo[1,5-a]azepine-11(12H)-carboxamide] here?
Answer: 52 nM

Question: C[C@@H]1Cc2nn3c(c2CN1C(=O)Nc1ccc(F)c(C#N)c1)-c1oncc1CCC3 [Example 14, (10R)—N-(3-Cyano-4-fluorophenyl)-10-methyl-5,6,9,10-tetrahydro-4H-isoxazolo[5,4-c]pyrido[4′,3′:3,4]pyrazolo[1,5-a]azepine-11(12H)-carboxamide] was tested. Which EC50 did it give?
Answer: 59 nM

Question: Which EC50 does the source give for C[C@@H]1Cc2nn3c(c2CN1C(=O)Nc1ccc(F)c(C(F)(F)F)c1)-c1oncc1CCC3 [Example 15, (10R)—N-(4-Fluoro-3-(trifluoromethyl)phenyl)-10-methyl-5,6,9,10-tetrahydro-4H-isoxazolo[5,4-c]pyrido[4′,3′:3,4]pyrazolo[1,5-a]azepine-11(12H)-carboxamide] here?
Answer: 83 nM

Question: How did the EC50 turn out when C[C@@H]1Cc2nn3c(c2CN1C(=O)Nc1ccc(F)c(C#N)c1)-c1ncccc1CCC3 [Example 16, (11R)—N-(3-Cyano-4-fluorophenyl)-11-methyl-6,7,10,11-tetrahydro-5H-pyrido[2,3-c]pyrido[4′,3′:3,4]pyrazolo[1,5-a]azepine-12(13H)-carboxamide] was run?
Answer: 330 nM

Question: With C[C@@H]1Cc2nn3c(c2CN1C(=O)Nc1ccc(F)c(C(F)(F)F)c1)-c1ncccc1CCC3 [Example 17, (11R)—N-(4-Fluoro-3-(trifluoromethyl)phenyl)-11-methyl-6,7,10,11-tetrahydro-5H-pyrido[2,3-c]pyrido[4′,3′:3,4]pyrazolo[1,5-a]azepine-12(13H)-carboxamide] as the molecule, how does the EC50 read?
Answer: 220 nM

Question: C[C@@H]1Cc2nn3c(c2CN1C(=O)Nc1ccc(F)c(C#N)c1)-c1nocc1CCC3 [Example 18, (10R)—N-(3-Cyano-4-fluorophenyl)-10-methyl-5,6,9,10-tetrahydro-4H-isoxazolo[3,4-c]pyrido[4′,3′:3,4]pyrazolo[1,5-a]azepine-11(12H)-carboxamide] was tested. Which EC50 did it give?
Answer: 15 nM

Question: Which EC50 does the source give for C[C@@H]1Cc2nn3c(c2CN1C(=O)Nc1ccc(F)c(C(F)(F)F)c1)-c1nocc1CCC3 [Example 19, (10R)—N-(4-Fluoro-3-(trifluoromethyl)phenyl)-10-methyl-5,6,9,10-tetrahydro-4H-isoxazolo[3,4-c]pyrido[4′,3′:3,4]pyrazolo[1,5-a]azepine-11(12H)-carboxamide] here?
Answer: 27 nM

Question: How did the EC50 turn out when O=C(Nc1ccc(F)c(Cl)c1)N1CCc2nn3c(c2C1)-c1nncn1CCC3 [Example 20, N-(3-Chloro-4-fluorophenyl)-6,7,10,11-tetrahydro-5H-pyrido[4′,3′:3,4]-pyrazolo[1,5-a][1,2,4]triazolo[3,4-c][1,4]diazepine-12(13H)-carboxamide] was run?
Answer: 2000 nM

Question: How did the EC50 turn out when Cc1nnc2n1CCCn1nc3c(c1-2)CN(C(=O)Nc1ccc(F)c(Cl)c1)CC3 [Example 21, N-(3-Chloro-4-fluorophenyl)-3-methyl-6,7,10,11-tetrahydro-5H-pyrido-[4′,3′:3,4]pyrazolo[1,5-a][1,2,4]triazolo[3,4-c][1,4]diazepine-12(13H)-carboxamide] was run?
Answer: 2700 nM

Question: For C[C@@H]1Cc2nn3c(c2CN1C(=O)Nc1ccc(F)c(Cl)c1)-c1nncn1CCC3 [Example 22, (R)—N-(3-Chloro-4-fluorophenyl)-11-methyl-6,7,10,11-tetrahydro-5H-pyrido[4′,3′:3,4]pyrazolo[1,5-a][1,2,4]triazolo[3,4-c][1,4]diazepine-12(13H)-carboxamide], which EC50 is on record?
Answer: > 4000 nM

Question: For Cc1nnc2n1CCCn1nc3c(c1-2)CN(C(=O)Nc1ccc(F)c(Cl)c1)[C@H](C)C3 [Example 23], which EC50 is on record?
Answer: > 4000 nM

Question: With N#Cc1cc(NC(=O)N2CCc3nn4c(c3C2)-c2nnccc2CCC4)ccc1F [Example 24, N-(3-Cyano-4-fluorophenyl)-6,7,10,11-tetrahydro-5H-pyridazino[3,4-c]pyrido[4′,3′:3,4]pyrazolo[1,5-a]azepine-12(13H)-carboxamide] as the molecule, how does the EC50 read?
Answer: 910 nM

Question: For O=C(Nc1ccc(F)c(Cl)c1)N1CCc2nn3c(c2C1)-c1n[nH]cc1CCC3 [Example 25, N-(3-Chloro-4-fluorophenyl)-4,5,6,9,10,12-hexahydropyrazolo[3,4-c]pyrido[4′,3′:3,4]pyrazolo[1,5-a]azepine-11(2H)-carboxamide], which EC50 is on record?
Answer: 28 nM

Question: With N#Cc1cc(NC(=O)N2CCc3nn4c(c3C2)-c2n[nH]cc2CCC4)ccc1F [Example 26, N-(3-Cyano-4-fluorophenyl)-4,5,6,9,10,12-hexahydropyrazolo[3,4-c]pyrido[4′,3′:3,4]pyrazolo[1,5-a]azepine-11(2H)-carboxamide] as the molecule, how does the EC50 read?
Answer: 23 nM

Question: Which EC50 does the source give for N#Cc1cc(NC(=O)N2CCc3nn4c(c3C2)-c2ncccc2CCC4)ccc1F [Example 27, N-(3-Cyano-4-fluorophenyl)-6,7,10,11-tetrahydro-5H-pyrido[2,3-c]pyrido[4′,3′:3,4]pyrazolo[1,5-a]azepine-12(13H)-carboxamide] here?
Answer: 170 nM
